Data on seven molecules can be found in article PMC12136037, “Type II kinase inhibitors that target Parkinson’s disease–associated LRRK2” (Science Advances, 2025).

Common to all, as to assay: DSF 100 kinase selectivity screen;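 further: compound tested at 20 µM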
What all share (type): binding

For test [1], the target named is T1, ~100 representative kinases (Homo sapiens, UniProt O14733).
T1 construct: Recombinant protein kinase domains with a concentration of 2 μM
T1 sequence (O14733 1-419): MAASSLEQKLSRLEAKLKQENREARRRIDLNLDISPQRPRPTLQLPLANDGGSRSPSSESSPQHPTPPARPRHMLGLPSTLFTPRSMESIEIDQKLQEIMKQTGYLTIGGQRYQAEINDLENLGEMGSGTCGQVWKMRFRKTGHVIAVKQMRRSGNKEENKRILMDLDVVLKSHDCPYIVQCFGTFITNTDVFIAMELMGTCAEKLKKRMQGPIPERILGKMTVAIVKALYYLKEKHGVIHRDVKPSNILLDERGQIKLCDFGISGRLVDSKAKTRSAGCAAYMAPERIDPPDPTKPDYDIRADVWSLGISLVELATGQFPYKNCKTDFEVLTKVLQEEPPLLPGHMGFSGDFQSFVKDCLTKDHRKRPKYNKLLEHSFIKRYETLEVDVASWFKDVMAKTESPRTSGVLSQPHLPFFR
The note with it: protein MAP2K7; average of three replicates. The procedure, abridged: (§1)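 Each kinase domain, at 2 μM, is mixed with 20 μM test compound and SYPRO Orange in Hepes (20 mM, pH 7.5) with 500 mM NaCl. Temperature is then raised at 3°C/min and fluorescence-monitored unfolding yields the melting temperature change, ΔTm in degrees Celsius.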

The target in test [2] is T2, ~100 representative kinases (Homo sapiens, UniProt O14965).
T2 construct: Recombinant protein kinase domains with a concentration of 2 μM
T2 sequence (O14965 1-403): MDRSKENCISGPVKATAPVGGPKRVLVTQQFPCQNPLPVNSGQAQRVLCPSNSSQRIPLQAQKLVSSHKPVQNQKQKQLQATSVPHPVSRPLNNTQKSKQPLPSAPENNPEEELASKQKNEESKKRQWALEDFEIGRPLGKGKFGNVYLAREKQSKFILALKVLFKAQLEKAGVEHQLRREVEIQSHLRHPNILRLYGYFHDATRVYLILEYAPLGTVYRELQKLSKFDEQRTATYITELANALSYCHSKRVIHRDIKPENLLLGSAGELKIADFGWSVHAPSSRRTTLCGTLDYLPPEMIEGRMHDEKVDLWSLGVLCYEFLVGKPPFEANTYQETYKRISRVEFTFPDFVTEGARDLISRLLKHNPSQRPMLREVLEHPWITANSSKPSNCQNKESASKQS
As to conditions: Protein STK6; DSF; average of three replicates. The procedure, abridged:
as §1

For test [3], the target named is T3, ~100 representative kinases (Homo sapiens, UniProt P11309).
T3 construct: Recombinant protein kinase domains with a concentration of 2 μM
T3 sequence (P11309 whole entry, the tested form may be a part): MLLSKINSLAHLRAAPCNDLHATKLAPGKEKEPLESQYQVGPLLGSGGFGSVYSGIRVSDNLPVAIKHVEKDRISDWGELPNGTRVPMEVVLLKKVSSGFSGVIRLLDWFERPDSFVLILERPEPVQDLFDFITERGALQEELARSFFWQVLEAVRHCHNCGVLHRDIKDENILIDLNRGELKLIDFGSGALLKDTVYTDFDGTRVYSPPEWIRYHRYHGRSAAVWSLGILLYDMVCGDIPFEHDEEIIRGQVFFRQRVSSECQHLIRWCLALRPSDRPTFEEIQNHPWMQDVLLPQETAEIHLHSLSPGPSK
As to conditions: protein PIM1; average of three replicates. The procedure, abridged: as §1

For test [4], the target named is T4, ~100 representative kinases (Homo sapiens, UniProt P12931).
T4 construct: Recombinant protein kinase domains with a concentration of 2 μM
T4 sequence (P12931 whole entry, the tested form may be a part): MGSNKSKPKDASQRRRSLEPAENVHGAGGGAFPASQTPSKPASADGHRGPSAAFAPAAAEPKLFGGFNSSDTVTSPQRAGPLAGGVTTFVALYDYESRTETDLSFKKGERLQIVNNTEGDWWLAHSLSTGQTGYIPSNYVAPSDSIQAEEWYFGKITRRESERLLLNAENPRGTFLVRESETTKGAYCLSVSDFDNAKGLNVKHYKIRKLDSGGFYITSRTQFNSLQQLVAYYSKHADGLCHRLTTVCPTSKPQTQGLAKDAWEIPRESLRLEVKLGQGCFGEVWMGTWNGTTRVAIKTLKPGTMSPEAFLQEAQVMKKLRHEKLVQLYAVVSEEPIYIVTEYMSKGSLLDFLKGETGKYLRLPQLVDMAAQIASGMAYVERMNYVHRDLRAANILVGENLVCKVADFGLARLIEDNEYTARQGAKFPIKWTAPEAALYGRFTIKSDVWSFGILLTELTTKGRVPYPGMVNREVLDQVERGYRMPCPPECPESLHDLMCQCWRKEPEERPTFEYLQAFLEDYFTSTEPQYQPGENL
As to conditions: Protein SRC; DSF; average of three replicates. The procedure, abridged: as §1

The target of test [5] is T5, ~100 representative kinases (Homo sapiens, UniProt P22607).
T5 construct: Recombinant protein kinase domains with a concentration of 2 μM
The note with it: protein FGFR3; average of three replicates. The procedure, abridged: as §1

Test [6] deals with T6, ~100 representative kinases (Homo sapiens, UniProt P45983).
T6 construct: Recombinant protein kinase domains with a concentration of 2 μM
T6 sequence (P45983 whole entry, the tested form may be a part): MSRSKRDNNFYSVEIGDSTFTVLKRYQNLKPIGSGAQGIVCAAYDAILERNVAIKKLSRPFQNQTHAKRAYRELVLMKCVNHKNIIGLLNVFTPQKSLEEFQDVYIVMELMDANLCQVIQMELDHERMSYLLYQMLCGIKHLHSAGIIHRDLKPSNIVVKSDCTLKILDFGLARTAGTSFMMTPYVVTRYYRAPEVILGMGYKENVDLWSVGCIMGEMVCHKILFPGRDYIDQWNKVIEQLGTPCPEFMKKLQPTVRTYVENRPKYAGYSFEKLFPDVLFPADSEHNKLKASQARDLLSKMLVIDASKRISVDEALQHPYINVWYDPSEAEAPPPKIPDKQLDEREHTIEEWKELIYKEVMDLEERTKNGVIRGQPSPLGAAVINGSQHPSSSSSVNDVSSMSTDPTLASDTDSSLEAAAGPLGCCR
The note with it: protein MAPK8; average of three replicates. The procedure, abridged:
as §1

The target of test [7] is T7, ~100 representative kinases (Homo sapiens, UniProt P45984).
T7 construct: Recombinant protein kinase domains with a concentration of 2 μM
As to conditions: protein MAPK9; average of three replicates. The procedure, abridged:
as §1

Test [8] deals with T8, ~100 representative kinases (Homo sapiens, UniProt P49137).
T8 construct: Recombinant protein kinase domains with a concentration of 2 μM
The note with it: protein MAPKAPK2; average of three replicates. The procedure, abridged:
as §1

Test [9] addresses T9, ~100 representative kinases (Homo sapiens, UniProt Q00532).
T9 construct: Recombinant protein kinase domains with a concentration of 2 μM
The note with it: Protein CDKL1; average of three replicates. The procedure, abridged:
as §1

In test [10] the target is T10, ~100 representative kinases (Homo sapiens, UniProt Q02750).
T10 construct: Recombinant protein kinase domains with a concentration of 2 μM
T10 sequence (Q02750 whole entry, the tested form may be a part): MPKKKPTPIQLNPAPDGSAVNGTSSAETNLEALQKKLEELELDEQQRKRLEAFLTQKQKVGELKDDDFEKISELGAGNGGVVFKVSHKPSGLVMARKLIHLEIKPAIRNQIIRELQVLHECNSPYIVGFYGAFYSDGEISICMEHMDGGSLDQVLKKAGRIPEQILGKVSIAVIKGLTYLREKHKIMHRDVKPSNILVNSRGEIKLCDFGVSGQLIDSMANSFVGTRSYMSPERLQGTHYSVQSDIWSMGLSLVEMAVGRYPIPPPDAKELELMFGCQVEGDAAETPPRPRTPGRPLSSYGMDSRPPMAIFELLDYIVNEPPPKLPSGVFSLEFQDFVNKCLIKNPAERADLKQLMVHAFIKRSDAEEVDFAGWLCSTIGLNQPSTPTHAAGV
The note with it: protein MAP2K1; average of three replicates. The procedure, abridged:
as §1

Test [11] concerns the target T11, ~100 representative kinases (Homo sapiens, UniProt Q13188).
T11 construct: Recombinant protein kinase domains with a concentration of 2 μM
T11 sequence (Q13188 1-491): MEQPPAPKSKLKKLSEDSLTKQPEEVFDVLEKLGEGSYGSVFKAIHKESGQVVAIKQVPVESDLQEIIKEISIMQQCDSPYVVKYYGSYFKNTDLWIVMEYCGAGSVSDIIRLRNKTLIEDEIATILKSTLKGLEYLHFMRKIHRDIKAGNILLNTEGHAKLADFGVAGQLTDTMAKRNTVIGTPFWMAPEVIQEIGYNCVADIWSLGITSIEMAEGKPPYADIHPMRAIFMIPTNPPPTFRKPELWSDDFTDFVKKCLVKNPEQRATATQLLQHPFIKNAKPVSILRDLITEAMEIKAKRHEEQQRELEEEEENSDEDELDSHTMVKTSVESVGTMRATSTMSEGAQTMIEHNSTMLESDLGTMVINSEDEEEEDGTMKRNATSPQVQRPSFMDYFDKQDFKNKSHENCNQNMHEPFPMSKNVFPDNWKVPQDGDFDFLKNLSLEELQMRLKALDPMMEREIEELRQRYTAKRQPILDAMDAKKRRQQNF
The note with it: Protein STK3; DSF; average of three replicates. The procedure, abridged:
as §1

For test [12], the target named is T12, ~100 representative kinases (Homo sapiens, UniProt Q96GD4).
T12 construct: Recombinant protein kinase domains with a concentration of 2 μM
T12 sequence (Q96GD4 whole entry, the tested form may be a part): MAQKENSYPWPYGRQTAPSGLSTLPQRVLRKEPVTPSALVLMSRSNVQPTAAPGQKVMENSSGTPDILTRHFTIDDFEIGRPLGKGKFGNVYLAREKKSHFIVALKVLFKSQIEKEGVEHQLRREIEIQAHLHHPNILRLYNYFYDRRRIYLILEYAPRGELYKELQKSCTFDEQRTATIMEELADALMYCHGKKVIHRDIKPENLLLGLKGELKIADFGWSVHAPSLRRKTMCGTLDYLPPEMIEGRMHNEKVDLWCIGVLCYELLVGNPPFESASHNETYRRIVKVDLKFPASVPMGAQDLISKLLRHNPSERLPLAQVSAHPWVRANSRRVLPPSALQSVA
As to conditions: Protein AURKB; average of three replicates. The procedure, abridged: as §1

The target of test [13] is T13, ~100 representative kinases (Homo sapiens, UniProt Q96RR4).
T13 construct: Recombinant protein kinase domains with a concentration of 2 μM
T13 sequence (Q96RR4 whole entry, the tested form may be a part): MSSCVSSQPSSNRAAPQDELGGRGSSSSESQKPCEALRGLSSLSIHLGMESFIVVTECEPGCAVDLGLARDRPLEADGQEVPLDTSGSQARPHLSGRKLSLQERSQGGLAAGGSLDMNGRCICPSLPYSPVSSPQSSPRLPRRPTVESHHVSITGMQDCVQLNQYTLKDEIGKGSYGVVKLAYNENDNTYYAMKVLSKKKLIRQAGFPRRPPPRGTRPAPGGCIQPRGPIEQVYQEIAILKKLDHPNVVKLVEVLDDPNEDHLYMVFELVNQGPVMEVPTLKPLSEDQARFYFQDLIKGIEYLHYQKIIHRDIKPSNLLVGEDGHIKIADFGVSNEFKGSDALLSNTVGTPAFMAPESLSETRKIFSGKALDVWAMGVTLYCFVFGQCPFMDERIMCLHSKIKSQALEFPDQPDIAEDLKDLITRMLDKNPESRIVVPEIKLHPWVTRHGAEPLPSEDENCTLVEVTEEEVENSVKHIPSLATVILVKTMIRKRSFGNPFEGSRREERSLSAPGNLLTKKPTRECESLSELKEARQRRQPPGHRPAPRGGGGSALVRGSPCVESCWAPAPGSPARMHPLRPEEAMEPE
The note with it: Protein CAMKK2; average of three replicates. The procedure, abridged: as §1

Test [14] deals with T14, ~100 representative kinases (Homo sapiens, UniProt Q9H2X6).
T14 construct: Recombinant protein kinase domains with a concentration of 2 μM
T14 sequence (Q9H2X6 whole entry, the tested form may be a part): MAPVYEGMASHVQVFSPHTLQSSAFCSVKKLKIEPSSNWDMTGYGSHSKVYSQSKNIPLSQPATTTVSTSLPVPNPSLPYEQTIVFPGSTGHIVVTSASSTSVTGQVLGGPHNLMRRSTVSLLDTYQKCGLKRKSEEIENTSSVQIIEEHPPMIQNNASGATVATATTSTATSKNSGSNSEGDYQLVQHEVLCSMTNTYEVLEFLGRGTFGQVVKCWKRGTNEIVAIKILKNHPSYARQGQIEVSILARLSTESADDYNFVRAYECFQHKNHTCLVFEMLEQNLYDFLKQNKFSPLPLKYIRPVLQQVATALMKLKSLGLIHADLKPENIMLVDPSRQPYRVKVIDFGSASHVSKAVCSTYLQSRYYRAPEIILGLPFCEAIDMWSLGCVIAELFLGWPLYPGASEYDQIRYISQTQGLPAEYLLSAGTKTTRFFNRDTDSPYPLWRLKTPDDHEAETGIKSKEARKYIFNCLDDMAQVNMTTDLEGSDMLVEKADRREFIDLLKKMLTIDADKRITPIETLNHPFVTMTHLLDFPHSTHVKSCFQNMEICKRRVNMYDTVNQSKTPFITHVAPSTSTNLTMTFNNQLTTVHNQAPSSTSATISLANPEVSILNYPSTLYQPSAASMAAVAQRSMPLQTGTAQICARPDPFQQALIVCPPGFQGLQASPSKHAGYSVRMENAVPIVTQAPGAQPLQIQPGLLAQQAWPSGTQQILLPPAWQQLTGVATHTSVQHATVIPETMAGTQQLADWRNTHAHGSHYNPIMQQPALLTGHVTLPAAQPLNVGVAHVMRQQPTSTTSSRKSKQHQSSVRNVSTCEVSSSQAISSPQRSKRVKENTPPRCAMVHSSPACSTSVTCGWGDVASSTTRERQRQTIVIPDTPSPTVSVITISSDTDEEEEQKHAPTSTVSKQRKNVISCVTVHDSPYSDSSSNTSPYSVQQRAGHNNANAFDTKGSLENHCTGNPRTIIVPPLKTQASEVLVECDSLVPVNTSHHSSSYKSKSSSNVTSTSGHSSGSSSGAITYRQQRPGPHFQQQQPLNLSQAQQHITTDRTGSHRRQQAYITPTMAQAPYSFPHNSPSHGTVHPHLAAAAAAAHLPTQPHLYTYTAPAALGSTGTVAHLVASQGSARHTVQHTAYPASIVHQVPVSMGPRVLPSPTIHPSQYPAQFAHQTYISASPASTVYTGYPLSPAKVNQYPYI
As to conditions: protein HIPK2; average of three replicates. The procedure, abridged:
as §1

Test [15] has as its target T15, ~100 representative kinases (Homo sapiens, UniProt Q9Y243).
T15 construct: Recombinant protein kinase domains with a concentration of 2 μM
As to conditions: Protein AKT3; average of three replicates. The procedure, abridged:
as §1

T9 sequence (Q00532 whole entry, the tested form may be a part): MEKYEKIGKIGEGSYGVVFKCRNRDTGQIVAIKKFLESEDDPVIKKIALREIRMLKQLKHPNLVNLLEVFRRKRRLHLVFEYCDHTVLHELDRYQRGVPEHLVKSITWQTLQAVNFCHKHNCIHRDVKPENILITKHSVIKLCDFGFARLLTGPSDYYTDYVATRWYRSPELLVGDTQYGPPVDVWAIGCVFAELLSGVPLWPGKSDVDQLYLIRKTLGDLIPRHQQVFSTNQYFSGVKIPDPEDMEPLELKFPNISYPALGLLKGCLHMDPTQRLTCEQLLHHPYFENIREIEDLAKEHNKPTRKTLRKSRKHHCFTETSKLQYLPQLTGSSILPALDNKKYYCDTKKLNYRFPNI
T15 sequence (Q9Y243 whole entry, the tested form may be a part): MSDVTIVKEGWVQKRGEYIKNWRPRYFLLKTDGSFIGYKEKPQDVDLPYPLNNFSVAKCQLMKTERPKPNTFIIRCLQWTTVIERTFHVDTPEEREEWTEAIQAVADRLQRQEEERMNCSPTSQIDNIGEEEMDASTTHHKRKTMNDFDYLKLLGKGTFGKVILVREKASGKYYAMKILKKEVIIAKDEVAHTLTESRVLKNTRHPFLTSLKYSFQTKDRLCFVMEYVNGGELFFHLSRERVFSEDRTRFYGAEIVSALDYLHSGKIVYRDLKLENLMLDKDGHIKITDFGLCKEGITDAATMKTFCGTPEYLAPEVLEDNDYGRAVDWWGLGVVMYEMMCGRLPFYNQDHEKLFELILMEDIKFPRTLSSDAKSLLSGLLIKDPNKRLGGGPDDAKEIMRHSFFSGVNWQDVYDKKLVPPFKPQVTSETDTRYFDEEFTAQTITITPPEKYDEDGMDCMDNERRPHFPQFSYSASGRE

In the case of `CC(C)(C)c1cccc(NC(=O)C2(C(=O)Nc3cccc(-c4c[nH]c5ncnc(N6CCOCC6)c45)c3)CC2)c1` [Compound 22], the dTm in [1] was 3.77 K; in [2], 6.69 K; in [3], 4.89 K; in test [4] it was -0.0179 K; in test [5], 4.54 K; in [6] it was 3.75 K. Further, the dTm is recorded as 1.21 K in test [7]; -0.67 K in [8]; 4.95 K in test [9]; 2.23 K in test [10]; 9.61 K in [11]; 1.96 K in test [12]. For the same molecule, the dTm in [13] was found to be 9.68 K; in [14], 3.44 K; in [15], 0.15 K.

For `Cc1cc(NC(=O)C2(C(=O)Nc3ccc(F)cc3)CC2)cc(-c2c[nH]c3ncnc(N4CCOCC4)c23)c1` [Compound 6], the dTm in test [1] came to 1.34 K; in test [2] it was 6.69 K; in test [3], 1.27 K; in [4] it was 0.20 K; in test [5] it was 1.74 K; in test [6] it was 2.19 K. Further, the dTm in [7] is 2.51 K; in test [8] it was 0.62 K; in test [9] it was 0.62 K; in test [10], 1.10 K; in [11], 6.70 K; in test [12] it was 4.75 K. Moreover, the dTm in test [13] is 4.32 K; in [14], 0.87 K; in test [15] it was -0.13 K.

On to `O=C(Nc1cccc(-c2c[nH]c3ncnc(N4CCOCC4)c23)c1)C1(C(=O)Nc2ccc(F)c(Br)c2F)CC1` [Compound 26], for which the dTm in test [1] is reported as 3.31 K; in test [2], 3.83 K; in test [3] it was 1.29 K; in [4], -0.13 K; in test [5], 3.36 K; in test [6] it was 2.06 K. Besides, the dTm is reported as 4.90 K in test [7]; -1.06 K in [8]; 1.85 K in test [9]; 2.67 K in [10]; 5.86 K in test [11]; 0.97 K in test [12]. For the same molecule, the dTm is reported as 5.53 K in test [13], 2.07 K in test [14] and -0.00683 K in test [15].

Take `O=C(Nc1cccc(-c2c[nH]c3ncnc(N4CCOCC4)c23)c1)C1(C(=O)Nc2cccc3c2CCC3)CC1` [Compound 11]: the dTm is listed as 4.41 K in test [1]; 4.34 K in [2]; 1.06 K in test [3]; 2.66 K in [4]; 2.85 K in test [5]; 2.36 K in [6]. The dTm in test [7] is 4.16 K; in [8] it was -0.26 K; in test [9], 3.41 K; in [10], 2.12 K; in [11], 4.65 K; in [12] it was -0.43 K. Also, the results for the dTm in [13], in test [14] and in test [15] were 5.02 K, 1.82 K and -0.39 K, respectively.

In the case of `Cn1cc(-c2c[nH]c3ncnc(N4CCOCC4)c23)cc1C#N` [PFE-360], the dTm in test [1] is 0.37 K; in test [2] it was 8.08 K; in test [3], 1.04 K; in [4], -0.08 K; in [5] it was 2.13 K; in test [6], 0.89 K. The dTm in test [7] is recorded as 0.17 K; in [8], 0.0427 K; in [9], -0.24 K; in test [10] it was 0.65 K; in test [11] it was 6.99 K; in test [12] it was 2.36 K. Besides, the dTm in test [13] is given as 5.91 K; in test [14], 0.25 K; in test [15] it was -0.26 K.

For `C[C@@H]1CN(c2cc(-c3n[nH]c4ccc(OC5(C)CC5)cc34)ncn2)C[C@H](C)O1` [MLi2], the dTm in test [1] is reported as -0.41 K; in test [2], 0.17 K; in test [3], 0.81 K; in test [4], 0.28 K; in test [5] it was 0.31 K; in [6] it was 0.56 K. In addition, the dTm in [7] is recorded as 0.30 K; in [8], -0.23 K; in [9], -0.11 K; in test [10], -0.0332 K; in test [11] it was 0.09 K; in test [12], -0.83 K. The dTm in test [13] is 8.80 K; in [14], 0.22 K; in test [15], -0.44 K.

Take `O=C(Nc1cccc(-c2c[nH]c3ncnc(N4CCOCC4)c23)c1)C1(C(=O)Nc2ccc(F)c(Br)c2)CC1` [Compound 19]: the dTm in test [1] is reported as 4.93 K; in test [2] it was 7.49 K; in [3], 3.98 K; in [4], -0.25 K; in test [5] it was 4.74 K; in [6], 3.53 K. Also, the dTm in test [7] is given as 5.82 K; in [8], -0.94 K; in test [9], 4.06 K; in test [10] it was 2.40 K; in test [11], 7.71 K; in [12], 5.64 K. Also, the dTm is given as 9.18 K in test [13], 2.50 K in test [14] and -0.15 K in [15].
